The source of these data is PMC6235002, “Born to sense: biophysical analyses of the oxygen sensing prolyl hydroxylase from the simplest animal Trichoplax adhaerens” (Hypoxia, 2018).

Series [1] addresses T1, TaPHD^64-300 (Trichoplax adhaerens, UniProt I6QVT6). The following applies: TaPHD with natural substrate (500 µM); 20 µM enzyme, 125 µM Fe(II), 1 mM ascorbate, 400 µM 2OG, 50 mM Tris-D11 pH 7.5; ^1H NMR.
Series [2] deals with T1, TaPHD^64-300. The experiment in a line: Steady-state O2-dependence of TaPHD (MALDI-TOF-MS). Format: biochemical. The settings on record: TaPHD^64-300 with TaODD 25mer. The method, then:
(§1) Notes: (A) Sequence alignment of TaHIFa, HsHIFa, and substrates of PHD-like enzymes in Dictyostelium discoideum (DdSkp1) and Pseudomonas putida (PpEF-Tu). […] Peptide hydroxylation was analyzed by MALDI-MS; the apparent non-enzymatic Met oxidation was subtracted. Data were fitted with the Michaelis-Menten equation using GraphPad Prism® (errors are indicated as standard deviations, n=3).
In order for the PHDs to act as hypoxia sensors in cells, their activity must be limited by oxygen availability. […] In order to study the O2 dependence of the TaPHD-catalyzed reaction, steady-state kinetics, using reported experimental conditions for HsPHD2;[29] were conducted. TaPHD^64-300 was reacted with its peptidic substrate in sealed glass-vials under varied oxygen concentrations,[29] the initial rates of TaODD 25mer hydroxylation were determined by MALDI–TOF-MS (Figure 2F and G).

In the next series the test system is HsPHD2. The settings on record: read-out: Km (O2); cited from earlier work.
For series [3], the target named is T1, TaPHD^64-300. As to the kind of experiment: MALDI-TOF-MS peptide hydroxylation steady-state kinetics, TaPHD^64-300. The following applies: for Km / kcat (peptide substrate): peptide varied, 3.5–7.0 µM enzyme, 50 µM (NH4)2Fe(II)(SO4)2, 4 mM ascorbate, 300 µM 2OG; for Km: 50 mM Tris pH 7.5, Michaelis-Menten fit, ± SD, n=3, read-out: Km (peptide substrate); for kcat (peptide substrate): 50 mM Tris pH 7.5, ± SD, n=3. In kind it is biochemical. The method, then:
as §1

For series [4], the target named is T1, TaPHD^64-300. The following applies: relative to TaODD 25mer and CODD 19mer; cited from earlier work. The text has this:
The HIF system in T. adhaerens is apparently markedly simpler than in humans because it contains only one PHD (TaPHD), and one HIFα isoform with a single ODD (TaODD, Figure 1A).[16] […] To further investigate the substrate preferences of TaPHD^64–300, its affini ...

The subject of another series is HsPHD2 R396T. The settings on record: HsPHD2 R396T variant; Figure S4, reference not given; cited from earlier work. The text has this:
(§2) In both the TaPHD.TaODD and HsPHD2.CODD[34] structures, a salt-bridge between an arginine residue in the C-terminal α4-helix and an aspartate residue in the C-terminus of the respective peptide (R292TaPHD/D494TaODD, R396HsPHD2/D571HsHIF1α CODD) is formed (Figure S4). However, this salt-bridge is not present in the HsPHD2.NODD complex structure, where the HsHIF1α NODD peptide is positioned further from the C-terminal helix and interacts with the C-terminal region of HsPHD2 via hydrophobic contacts. Studies with the TaODD and HsPHD2 variants, including with HsPHD2 P317RHsPHD2 and R396THsPHD2, wh ...

In series [5] the target is T2, HsPHD2^181-426 (Homo sapiens, UniProt Q9GZT9).
T2 construct: compared to the truncated human PHD isoform 2 (HsPHD2^181-426)
The experiment in a line: MALDI-TOF-MS peptide hydroxylation steady-state kinetics, HsPHD2^181-426. In kind it is biochemical. The settings on record: peptide varied, 3.5–7.0 µM enzyme, 50 µM (NH4)2Fe(II)(SO4)2, 4 mM ascorbate, 300 µM 2OG; for Km: 50 mM Tris pH 7.5, Michaelis-Menten fit, ± SD, n=3, read-out: Km (peptide substrate); for kcat (peptide substrate): 50 mM Tris pH 7.5, ± SD, n=3. The method, then:
as §1

The target in series [6] is T1, TaPHD^64-300. As to the kind of experiment: 1D CLIP HSQC NMR binding studies with [^13C]-prolyl-labelled reporter ODD peptides. The following applies: 1:1 enzyme:ODD, 50 µM [^13C]-proline-labelled peptide, 50 µM TaPHD, Zn(II), 50 µM 2OG, 50 mM Tris-D11 pH 7.5, 10% D2O/90% H2O, n=3. On the procedure: as §1
To more directly investigate the extent to which TaPHD^64-300 can bind HsHIF1α NODD and CODD, we performed 1D CLIP HSQC NMR binding studies with HsHIF1α CODD and HsHIF1α NODD peptides labeled with [^13C] at the target prolyl residues which undergo hydroxylation during catalysis (Figure 2C).

Series [7] addresses T2, HsPHD2^181-426. The arrangement: method as in PMID 25120187. The settings on record: previous studies, read-out: Km (peptide substrate), previous studies; cited from earlier work.
Another series relates to HsPHD2 P317R. The following applies: HsPHD2 P317R variant; Figure S4, reference not given; cited from earlier work.
From the text: as §2

Substrate in series [8]: O=C(O)CCC(=O)C(=O)O
As to the kind of experiment: MALDI-TOF-MS peptide hydroxylation steady-state kinetics, TaPHD^64-300. Format: biochemical, Trichoplax adhaerens. The following applies: other: TaPHD^64-300, 2OG varied, 100 µM peptide, 50 µM (NH4)2Fe(II)(SO4)2, 4 mM ascorbate, 50 mM Tris pH 7.5, ± SD, n=3, 37.0 °C.

What is called Km is the concentration of substrate that gives half-maximal velocity.

“Also recorded” adds a separate entry of the source. Where two headings read alike, the source gives them in different places.

T2 sequence (Q9GZT9 181-426): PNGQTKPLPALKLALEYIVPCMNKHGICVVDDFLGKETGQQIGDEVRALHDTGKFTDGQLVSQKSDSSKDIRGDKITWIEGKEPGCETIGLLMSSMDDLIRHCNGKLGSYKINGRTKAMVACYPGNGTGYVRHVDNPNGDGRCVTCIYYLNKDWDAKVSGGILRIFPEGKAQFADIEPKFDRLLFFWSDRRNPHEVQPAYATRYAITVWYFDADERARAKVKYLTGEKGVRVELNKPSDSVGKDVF

Take `O=C(O)CCC(=O)C(=O)O` [2OG, 2-oxoglutarate]: at TaPHD^64-300 [1], the “2OG decarboxylation in presence of substrate” value is “strongly increased in presence of substrate”.
For the molecule `O=O` [O2, oxygen], the Km at TaPHD^64-300 [2] (4 µM enzyme, 100 µM TaODD, 50 µM Fe(II), 300 µM 2OG, 4 mM ascorbate, 50 mM Tris pH 7.5, 37°C, varied % O2, n=3) is above 400 µM; in the series on HsPHD2, above 400 µM. Also, at TaPHD^64-300 [2] (at 60% O2 level, 37°C, pH 7.5), the “O2 saturation (in words)” value was “No saturation of O2 was reached”.
For “DALTLLAPAAGDTIISLDF-NH2 [HsHIF1α NODD 19mer, 19mer peptide of the human HIF1α N-terminal ODD]”, the “hydroxylation by TaPHD (in words)” value on TaPHD^64-300 [3] is reported as “not turned over above background level”. On TaPHD^64-300 [4], the “hydroxylation by TaPHD, earlier report (in words)” value is “hydroxylated less efficiently”. Moreover, the “ODD selectivity of HsPHD2 R396T (in words)” value in the series with HsPHD2 R396T is “NODD”.
“DLDLEMLAPYIPMDDDFQL-NH2 [HsHIF1α CODD 19mer, 19mer peptide of the human HIF1α C-terminal ODD]”: at TaPHD^64-300 [3], the “hydroxylation by TaPHD (in words)” value is given as “efficiently catalyzes the hydroxylation”, the Km amounted to 15.1 ± 2.2 µM and the “kcat (peptide substrate)” value stood at 0.012 ± 0.001 s⁻¹. For the same molecule, at HsPHD2^181-426 [5], the Km worked out at 10.8 ± 1.9 µM and the “kcat (peptide substrate)” value turned out to be 0.027 ± 0.001 s⁻¹. Besides, the “binding to TaPHD (in words)” value at TaPHD^64-300 [6] is reported as “higher binding affinity of TaPHD for HsHIF1α CODD over NODD; also recorded: apparently completely bound”. Further, the Km at HsPHD2^181-426 [7] was 9 ± 3 µM. In addition, the “ODD selectivity of HsPHD2 P317R (in words)” value with HsPHD2 P317R is listed as “selective for CODD”.
“PINEKEDYDDLAPFVPPPSFDNRLY-NH2 [TaODD 25mer, 25mer peptide of the single ODD of T. adhaerens HIFα, natural substrate of TaPHD]”: on TaPHD^64-300 [3], the “hydroxylation by TaPHD (in words)” value is recorded as “efficiently catalyzes the hydroxylation”, the Km stood at 11.5 ± 1.8 µM and the “kcat (peptide substrate)” value was determined as 0.026 ± 0.001 s⁻¹. Besides, at HsPHD2^181-426 [5], the Km came to 40.5 ± 4.9 µM and the “kcat (peptide substrate)” value came out at 0.035 ± 0.002 s⁻¹.

B1: TaPHD^64-300 (Trichoplax adhaerens) (protein)
chain: MDERRPKIGCDKTGLALEKTWQLQKNERLSNMVVNQLNTNGFCIINNFLGSSCSTEVLQQVLNLYQSGVFSNGQLARNVSVNRIRGDKIAWIGGDERGCEAIKYLSSCVDSLISRCNGRLGNYMITGRTKCMVACYPGSGLGYIRHIDNPNRDGRCVTVLYYLNPNWNSQDCGGQLWLYPNNENKVVKIDPIFDRLLLFWSDRRNPHEVKPAYAMRYAITLWYFDEKERALSSQNGT
With B1, the Km in [8] is 1.9 ± 0.3 µM.
